Data: patent publication US7510843B2, “Use of a polypeptide for detecting, preventing or treating a pathological condition associated with a degenerative, neurological or autoimmune disease” (Biomerieux S.A., priority 1999, dated 2009)

Assays:
[1] = tested on: GM2AP and Saposin B proteins in the urines; experiment: Elisa assay of GM2AP and Saposin B in the urine of an MS patient after a treatment flash; assay type: in vivo, human; conditions: MS patient No. 2, progressive form, up to 23 days; increase again, high at D60
From the text: (§1) Urines of this patient were collected during the progression of their disease. The patient was hospitalized on D0 for an attack.

[2] = Clinical monitoring of an MS patient after a treatment flash; assay type: in vivo, human; conditions: MS patient No. 2, progressive form, flash on D1 after attack; worsening signs at D60
From the text: as §1

SMILES: O=P1(N(CCCl)CCCl)NCCCO1 (centres unmarked) [Endoxan, cyclophosphamide]
- GM2AP and Saposin B concentrations in urine over time after the flash [1]: decrease gradually over time
- clinical effect of the flash [2]: clinical improvement
